Experimental data as given in ChEMBL document CHEMBL4765306, “Design, synthesis and biological evaluation of novel naturally-inspired multifunctional molecules for the management of Alzheimer's disease” (Eur J Med Chem, 2020).
Calls of active or inactive are those of the source. No cut-off for these calls is given here.

Key:
[1] = Antioxidant activity assessed as DPPH radical scavenging activity incubated for 25 mins in shaker; format: functional
Acetylcholinesterase = Acetylcholinesterase (Homo sapiens, UniProt P22303); assay: Inhibition of recombinant human erythrocyte AChE using acetylthiocholine iodide as substrate preincubated for 30 mins followed by substrate addition and measured after 30 mins by spectrophotometry based Ellman's method
[2] = target: Cholinesterase (Equus caballus) (UniProt P81908); assay: Inhibition of […] equine serum BuChE at 20 uM using butyryl thiocholine iodide as substrate preincubated for 30 mins followed by substrate addition and measured after 30 mins by spectrophotometry based Ellman's method relative to control; format: cell-free; conditions: time 60.0 min
[3] = Antioxidant activity assessed as DPPH radical scavenging activity at 20 uM incubated for 25 mins in shaker relative to control; format: functional
Cholinesterase = Cholinesterase (Equus caballus, UniProt P81908); assay: Inhibition of […] equine serum BuChE using butyryl thiocholine iodide as substrate preincubated for 30 mins followed by substrate addition and measured after 30 mins by spectrophotometry based Ellman's method; format: cell-free
[4] = Metal chelating activity assessed as Fe3+-compound complex formation at 300 uM measured for 30 mins by UV-Visible spectrophotometric method
[5] = Metal chelating activity assessed as Fe3+-compound complex formation at 300 uM measured for 30 mins by MS-MS analysis

Sequence of Cholinesterase (P81908 whole entry): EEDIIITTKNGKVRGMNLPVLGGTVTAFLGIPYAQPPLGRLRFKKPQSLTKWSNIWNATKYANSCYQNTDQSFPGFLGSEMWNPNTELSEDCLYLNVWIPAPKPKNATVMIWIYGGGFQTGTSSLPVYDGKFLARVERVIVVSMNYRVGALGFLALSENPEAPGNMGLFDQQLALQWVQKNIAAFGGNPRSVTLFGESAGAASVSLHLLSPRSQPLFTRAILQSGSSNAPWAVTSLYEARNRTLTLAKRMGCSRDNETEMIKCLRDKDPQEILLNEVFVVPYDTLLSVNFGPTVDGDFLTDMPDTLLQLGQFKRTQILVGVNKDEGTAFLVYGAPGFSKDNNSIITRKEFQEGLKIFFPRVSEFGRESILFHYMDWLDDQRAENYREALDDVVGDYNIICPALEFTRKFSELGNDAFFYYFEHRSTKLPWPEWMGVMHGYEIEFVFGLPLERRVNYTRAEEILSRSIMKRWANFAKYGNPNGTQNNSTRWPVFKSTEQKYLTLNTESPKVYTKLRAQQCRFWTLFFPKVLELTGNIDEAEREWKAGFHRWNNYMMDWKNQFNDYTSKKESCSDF
Sequence of Cholinesterase (Equus caballus) (P81908 whole entry): as above
Sequence of Acetylcholinesterase (P22303 whole entry): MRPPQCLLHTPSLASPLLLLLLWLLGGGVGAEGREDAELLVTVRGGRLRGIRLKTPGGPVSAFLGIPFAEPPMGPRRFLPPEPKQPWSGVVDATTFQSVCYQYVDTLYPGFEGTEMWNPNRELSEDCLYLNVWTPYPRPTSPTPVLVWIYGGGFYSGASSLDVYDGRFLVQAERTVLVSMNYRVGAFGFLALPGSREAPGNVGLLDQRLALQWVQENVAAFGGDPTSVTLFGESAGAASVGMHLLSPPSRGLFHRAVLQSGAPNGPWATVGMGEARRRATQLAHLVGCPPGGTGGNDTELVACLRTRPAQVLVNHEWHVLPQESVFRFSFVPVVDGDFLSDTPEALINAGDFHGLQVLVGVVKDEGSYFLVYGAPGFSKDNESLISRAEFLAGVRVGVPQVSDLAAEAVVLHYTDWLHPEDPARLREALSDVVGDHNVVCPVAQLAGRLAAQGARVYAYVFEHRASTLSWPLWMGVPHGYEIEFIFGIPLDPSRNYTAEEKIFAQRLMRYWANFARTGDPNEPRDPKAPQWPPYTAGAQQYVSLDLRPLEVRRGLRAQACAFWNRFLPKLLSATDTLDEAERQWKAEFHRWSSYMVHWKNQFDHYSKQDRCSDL

| SMILES | IC50 [1] [µM] | IC50 (Acetylcholinesterase) [µM] | inhibition [2] [%] | Activity [3] [%] | IC50 (Cholinesterase) [µM] | Activity [4] | Activity [5] |
| --- | --- | --- | --- | --- | --- | --- | --- |
| COc1cccc(N2CCN(C(=O)/C=C/c3ccc(O)c(OC)c3)CC2)c1 | 62 | 9.91 | 26.9 | 28.8 |  |  |  |
| COc1cc(/C=C/C(=O)NCC(=O)Nc2cccc(C#N)c2)ccc1O |  | 16 | 31.6 |  |  |  |  |
| COc1ccc(NC(=O)CNC(=O)/C=C/c2ccc(O)c(OC)c2)cc1 | 91.2 | 17.3 | 49.9 | 23.6 | 19.5 |  |  |
| COc1cccc(NC(=O)CNC(=O)/C=C/c2ccc(O)c(OC)c2)c1 | 94.3 | 2.42 | 55.4 | 19.1 | 15.3 | Active | Active |
| COc1cc(/C=C/C(=O)NCC(=O)Nc2ccc3ncccc3c2)ccc1O | 77.6 | 4.89 | 57.7 | 18.6 | 14.3 |  |  |
| COc1cc(/C=C/C(=O)NCC(=O)Nc2cccc(Br)c2)ccc1O |  | 13.1 | 36.6 |  |  |  |  |
| COc1cc(/C=C/C(=O)N2CCN(c3cccc([N+](=O)[O-])c3)CC2)ccc1O |  | 23.4 | 37.9 |  |  |  |  |
| COc1cc(/C=C/C(=O)NCC(=O)Nc2cccc(F)c2)ccc1O |  | 22.1 | 38.3 |  |  |  |  |
| COc1cc(/C=C/C(=O)NCC(=O)Nc2ccc(C#N)cc2)ccc1O |  | 17.4 | 35.7 |  |  |  |  |
| COc1cc(/C=C/C(=O)NCC(=O)Nc2ccc(C)cc2)ccc1O |  | 12.6 | 35.6 |  |  |  |  |
| COc1cc(/C=C/C(=O)NCC(=O)Nc2cccc(Cl)c2)ccc1O | 108 | 5.68 | 48.5 | 12.7 |  |  |  |
| COc1cc(/C=C/C(=O)N2CCN(c3ccc(F)cc3)CC2)ccc1O |  | 11 | 27.7 |  |  |  |  |
| COc1cc(/C=C/C(=O)NCC(=O)Nc2cccc(C)c2)ccc1O |  | 18.9 | 36.1 |  |  |  |  |
| COc1cc(/C=C/C(=O)NCC(=O)Nc2ccccc2C(F)(F)F)ccc1O |  | 15.1 | 43.2 |  |  |  |  |
| COc1cc(/C=C/C(=O)N2CCN(c3ccc(C)cc3)CC2)ccc1O |  | 19.5 | 38.1 |  |  |  |  |
